In one data set the test system is Wistar rats. Description: IOP measurements in rats (topical administration to the eye; IOP and hemodynamic parameters). It is filed as in vivo, rat. As for the experimental part: Wistar rats with a body weight of about 300 g were anesthetized with isoflurane (2-3% in O2:N2O=1:2). The test compounds were diluted in 0.9% sodium chloride and given by topical administration to the eye in 10 μl volume at a concentration of 10 mg/ml. IOP was measured with a rebound tonometer (TonoLab) at different time points after application of the drugs. Ocular pressure and effects of hemodynamic parameters can be monitored in this model.
N^6-Cyclopentyl-Adenosine and Example 1 reduce IOP at a volume of 10 μl (concentration 10 mg/ml).

The subject of a further data set is cynomolgus monkeys. The conditions noted are these: cynomolgus monkeys (Lit. 9); cited from earlier work.
For the next data set, the system named is rabbits. The conditions noted are these: rabbits (Lit. 6,7,8); cited from earlier work.

In the case of `OC[C@H]1O[C@@H](n2cnc3c(NC4CCCC4)ncnc32)[C@H](O)[C@@H]1O` [N^6-Cyclopentyl-Adenosine], the “effects on mean arterial blood pressure / hemodynamic parameters” value with Wistar rats (Wistar rats, 10 mg/ml (FIG. 2)) is recorded as “significantly reduces blood pressure”. Besides, the IOP entry with Wistar rats (anesthetized Wistar rats, 10 μl volume, concentration 10 mg/ml, rebound tonometer (FIG. 1)) is “reduce IOP”.

For the molecule `C[C@H](Cc1ccccc1)Nc1ncnc2c1ncn2[C@@H]1O[C@H](CO)[C@@H](O)[C@H]1O` [R-PIA, R(−)-N-6-(2-phenylisopropyl)adenosine], the intraocular pressure entry in the data set on cynomolgus monkeys and with rabbits was “lower intraocular pressure” throughout.

For `OC[C@H]1O[C@@H](n2cnc3c(NC4CCCCC4)ncnc32)[C@H](O)[C@@H]1O` [CHA, N6-cyclohexyl-adenosine], the intraocular pressure entry in the data set on cynomolgus monkeys and in the data set with rabbits was “lower intraocular pressure” each time.
